Results: ChEMBL document CHEMBL5518230, “Identification of a Novel Selective CDK9 Inhibitor for the Treatment of CRC: Design, Synthesis, and Biological Activity Evaluation” (J Med Chem, 2024)
Calls of active or inactive are those of the source. No cut-off for these calls is given here.

Experiments:
CYP3A4 = CYP3A4 (Homo sapiens, UniProt P08684); experiment: Inhibition of CYP3A4 in human liver microsomes using ketoconazole as […] at 10 uM preincubated for 10 mins followed by NADPH addition measured after 15 mins by LC-MS/MS analysis relative to control; format: ADME, Microsome; conditions: probe ketoconazole, time 25 min
[1] = Half life in human plasma measured upto 120 mins by LC-MS/MS analysis; format: ADME, cell-free
HCT-116 [2] = experiment: Inhibition of colony formation in human HCT-116 cells assessed as reduction in colony number incubated for 14 days by crystal violet staining assay; format: functional, cell-based; conditions: time 14.0 day
[3] = Toxicity in BALB/c mouse xenografted with human HCT-116 cells assessed as lung morphological change at 50 mg/kg,po administrated once daily for 3 weeks by hematoxylin and eosin staining based microscopic analysis; format: organism-based; conditions: in vivo, 504 h
[4] = MRT (0 to t) in Sprague-Dawley rat at 2 mg/kg,iv administration measured for 0.25 to 24 hrs by LC-MS/MS analysis; format: ADME, organism-based; conditions: in vivo, time 0.25-24 hrs
HCT-116 [5] = experiment: Antitumor activity against human HCT-116 cells xenografted in BALB/c mouse assessed as upregulation of PARP expression at 50 mg/kg,po administrated once daily for 3 weeks by Western blotting analysis; format: functional, organism-based
[6] = molecular target: Mitogen-activated protein kinase kinase kinase kinase 4 (Homo sapiens) (UniProt O95819); experiment: Inhibition of human HGK at 100 nM by kinase profiling assay relative to control
[7] = molecular target: Serine/threonine-protein kinase Nek1 (Homo sapiens) (UniProt Q96PY6); experiment: Inhibition of human NEK1 at 100 nM by kinase profiling assay relative to control
Chain of Serine/threonine-protein kinase Nek1 (Homo sapiens) (Q96PY6 whole entry): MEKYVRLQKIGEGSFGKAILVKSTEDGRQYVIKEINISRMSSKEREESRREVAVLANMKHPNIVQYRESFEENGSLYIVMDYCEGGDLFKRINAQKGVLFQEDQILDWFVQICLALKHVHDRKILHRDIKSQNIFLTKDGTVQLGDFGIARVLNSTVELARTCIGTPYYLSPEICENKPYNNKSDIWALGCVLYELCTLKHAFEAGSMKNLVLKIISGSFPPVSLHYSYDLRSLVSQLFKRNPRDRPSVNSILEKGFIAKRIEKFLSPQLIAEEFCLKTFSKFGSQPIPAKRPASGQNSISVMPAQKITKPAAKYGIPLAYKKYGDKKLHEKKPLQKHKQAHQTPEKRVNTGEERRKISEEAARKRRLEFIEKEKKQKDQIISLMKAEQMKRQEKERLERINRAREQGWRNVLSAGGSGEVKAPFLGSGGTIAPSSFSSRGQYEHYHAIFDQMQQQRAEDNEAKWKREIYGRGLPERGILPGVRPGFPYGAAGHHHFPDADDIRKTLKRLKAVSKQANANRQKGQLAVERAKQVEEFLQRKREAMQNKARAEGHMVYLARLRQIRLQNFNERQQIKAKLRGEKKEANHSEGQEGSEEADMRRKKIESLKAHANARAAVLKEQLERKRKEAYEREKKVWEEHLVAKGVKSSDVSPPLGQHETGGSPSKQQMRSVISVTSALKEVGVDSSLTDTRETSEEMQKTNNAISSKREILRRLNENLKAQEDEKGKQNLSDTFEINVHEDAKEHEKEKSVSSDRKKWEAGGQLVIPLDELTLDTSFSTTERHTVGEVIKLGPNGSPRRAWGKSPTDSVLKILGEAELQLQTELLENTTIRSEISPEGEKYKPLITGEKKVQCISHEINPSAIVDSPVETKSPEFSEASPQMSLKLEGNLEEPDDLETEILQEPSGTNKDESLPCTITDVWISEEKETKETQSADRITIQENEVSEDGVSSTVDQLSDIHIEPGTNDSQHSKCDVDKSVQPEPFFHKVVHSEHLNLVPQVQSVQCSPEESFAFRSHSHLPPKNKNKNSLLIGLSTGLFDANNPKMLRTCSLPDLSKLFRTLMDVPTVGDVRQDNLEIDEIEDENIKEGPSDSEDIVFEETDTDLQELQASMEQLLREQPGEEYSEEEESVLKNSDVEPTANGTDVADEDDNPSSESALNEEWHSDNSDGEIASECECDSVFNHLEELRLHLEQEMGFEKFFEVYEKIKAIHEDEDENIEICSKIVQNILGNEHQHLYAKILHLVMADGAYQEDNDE

[8] = molecular target: Cyclin-dependent kinase 12 (Homo sapiens, UniProt Q9NYV4); experiment: Inhibition of CDK12 (unknown origin)
[9] = Toxicity in BALB/c mouse xenografted with human HCT-116 cells assessed as spleen morphological change at 25 mg/kg,po administrated once daily for 3 weeks by hematoxylin and eosin staining based microscopic analysis; format: organism-based; conditions: in vivo, 504 h
HCT-116 [10] = experiment: Induction of apoptosis in human HCT-116 cells assessed as downregulation of XIAP mRNA expression at 25 to 400 nM incubated for 48 hrs by qRT-PCR analysis; format: functional, cell-based; conditions: dose 25-400 nM
HCT-116 [11] = experiment: Induction of apoptosis in human HCT-116 cells assessed as downregulation of PARP expression at 25 to 400 nM incubated for 48 hrs by Western blotting analysis; format: functional, cell-based; conditions: dose 25-400 nM
HCT-116 [12] = experiment: Induction of apoptosis in human HCT-116 cells assessed as increase in red fluorescence emission by TUNEL staining fluorescence microscopic analysis; format: functional, cell-based
[13] = molecular target: TGF-beta receptor type-2 (Homo sapiens) (UniProt P37173); experiment: Inhibition of human TGFbetaR2 at 100 nM by kinase profiling assay relative to control
Chain of TGF-beta receptor type-2 (Homo sapiens) (P37173 whole entry): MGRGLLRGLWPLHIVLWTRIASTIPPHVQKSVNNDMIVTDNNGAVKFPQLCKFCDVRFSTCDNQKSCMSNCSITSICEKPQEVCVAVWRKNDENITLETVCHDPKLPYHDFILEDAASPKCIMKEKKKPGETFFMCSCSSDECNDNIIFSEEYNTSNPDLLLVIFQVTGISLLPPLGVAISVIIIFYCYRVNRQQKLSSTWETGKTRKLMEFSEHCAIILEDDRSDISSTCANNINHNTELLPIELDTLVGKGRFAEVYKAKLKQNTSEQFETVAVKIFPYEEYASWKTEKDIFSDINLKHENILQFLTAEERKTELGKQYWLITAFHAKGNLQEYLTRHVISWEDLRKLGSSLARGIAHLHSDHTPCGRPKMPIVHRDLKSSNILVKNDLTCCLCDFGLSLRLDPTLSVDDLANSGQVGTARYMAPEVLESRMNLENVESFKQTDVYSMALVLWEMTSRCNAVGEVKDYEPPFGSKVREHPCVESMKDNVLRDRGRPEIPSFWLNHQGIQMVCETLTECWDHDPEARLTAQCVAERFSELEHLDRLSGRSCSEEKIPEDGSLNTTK

[14] = Toxicity in BALB/c mouse xenografted with human HCT-116 cells assessed as spleen morphological change at 50 mg/kg,po administrated once daily for 3 weeks by hematoxylin and eosin staining based microscopic analysis; format: organism-based; conditions: in vivo, 504 h
HCT-116 [15] = experiment: Induction of apoptosis in human HCT-116 cells assessed as increase in late apoptotic cells incubated for 48 hrs by Annexin V-FITC/PI staining based flow cytometric analysis; format: functional, cell-based
[16] = Intrinsic clearance in human liver microsomes at 100 uM measured upto 60 mins in presence of NADPH by LC-MS/MS analysis; format: ADME, Microsome; conditions: 1 h
HCT-116 [17] = experiment: Growth inhibition of human HCT-116 cells incubated for 48 hrs by CCK-8 assay; format: functional
[18] = molecular target: Cyclin-dependent kinase 4 (Homo sapiens, UniProt P11802); experiment: Inhibition of CDK4 (unknown origin)
Chain of Cyclin-dependent kinase 4 (P11802 whole entry): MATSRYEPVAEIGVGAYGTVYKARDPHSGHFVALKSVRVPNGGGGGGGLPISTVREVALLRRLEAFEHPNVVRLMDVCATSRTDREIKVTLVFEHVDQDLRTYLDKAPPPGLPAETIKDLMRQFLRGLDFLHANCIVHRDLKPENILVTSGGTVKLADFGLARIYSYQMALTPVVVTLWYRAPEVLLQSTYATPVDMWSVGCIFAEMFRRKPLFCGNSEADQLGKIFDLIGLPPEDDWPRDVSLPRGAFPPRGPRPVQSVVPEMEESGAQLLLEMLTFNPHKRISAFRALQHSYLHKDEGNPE

[19] = Selectivity index, ratio of GI50 for growth inhibition of human CCC-HIE-2 cells to GI50 for growth inhibition of human HCT-116 cells
[20] = Stability in human liver microsomes assessed as compound remaining at 100 uM measured upto 60 mins in presence of NADPH by LC-MS/MS analysis; format: ADME, Microsome; conditions: read-out: Stability
[21] = Toxicity in BALB/c mouse xenografted with human HCT-116 cells assessed as heart morphological change at 25 mg/kg,po administrated once daily for 3 weeks by hematoxylin and eosin staining based microscopic analysis; format: organism-based; conditions: in vivo, 504 h
[22] = Growth inhibition of human CCC-HIE-2 cells incubated for 48 hrs by CCK-8 assay; format: toxicity, cell-based
[23] = Tmax in Sprague-Dawley rat at 10 mg/kg,po administration measured for 0.25 to 24 hrs by LC-MS/MS analysis; format: ADME, organism-based; conditions: in vivo, time 0.25-24 hrs
[24] = molecular target: Serine/threonine-protein kinase SIK2 (Homo sapiens) (UniProt Q9H0K1); experiment: Inhibition of human QIK at 100 nM by kinase profiling assay relative to control
Chain of Serine/threonine-protein kinase SIK2 (Homo sapiens) (Q9H0K1 whole entry, looked up): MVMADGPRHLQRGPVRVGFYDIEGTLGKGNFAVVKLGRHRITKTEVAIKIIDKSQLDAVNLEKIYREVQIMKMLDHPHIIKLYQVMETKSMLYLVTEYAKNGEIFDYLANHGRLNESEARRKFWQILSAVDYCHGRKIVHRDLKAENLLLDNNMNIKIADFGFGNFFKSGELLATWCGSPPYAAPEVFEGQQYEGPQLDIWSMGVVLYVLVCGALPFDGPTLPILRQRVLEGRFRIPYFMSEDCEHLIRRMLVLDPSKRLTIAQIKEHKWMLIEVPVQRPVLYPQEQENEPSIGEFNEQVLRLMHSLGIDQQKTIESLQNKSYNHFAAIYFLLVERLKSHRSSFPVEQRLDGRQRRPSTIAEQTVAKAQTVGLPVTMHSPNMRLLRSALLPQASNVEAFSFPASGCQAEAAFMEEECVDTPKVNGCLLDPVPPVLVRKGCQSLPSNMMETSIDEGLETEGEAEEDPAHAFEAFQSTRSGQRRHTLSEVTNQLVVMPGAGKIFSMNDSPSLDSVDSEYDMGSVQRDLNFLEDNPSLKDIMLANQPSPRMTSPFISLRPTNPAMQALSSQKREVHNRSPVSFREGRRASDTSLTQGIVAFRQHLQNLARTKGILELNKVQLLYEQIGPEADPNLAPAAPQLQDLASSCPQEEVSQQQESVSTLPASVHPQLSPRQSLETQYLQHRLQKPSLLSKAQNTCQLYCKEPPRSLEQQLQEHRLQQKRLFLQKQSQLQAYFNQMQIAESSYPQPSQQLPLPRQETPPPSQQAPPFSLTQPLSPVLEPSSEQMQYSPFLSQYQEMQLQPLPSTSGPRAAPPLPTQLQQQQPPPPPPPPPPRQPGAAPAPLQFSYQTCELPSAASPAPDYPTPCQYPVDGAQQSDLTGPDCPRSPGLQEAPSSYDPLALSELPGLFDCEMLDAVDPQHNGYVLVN

CYP2C9 = CYP2C9 (Homo sapiens, UniProt P11712); experiment: Inhibition of CYP2C9 in human liver microsomes using sulfaphenazole as […] at 10 uM preincubated for 10 mins followed by NADPH addition measured after 15 mins by LC-MS/MS analysis relative to control; format: ADME, Microsome; conditions: probe sulfaphenazole, time 25 min
Chain of CYP2C9 (P11712 whole entry): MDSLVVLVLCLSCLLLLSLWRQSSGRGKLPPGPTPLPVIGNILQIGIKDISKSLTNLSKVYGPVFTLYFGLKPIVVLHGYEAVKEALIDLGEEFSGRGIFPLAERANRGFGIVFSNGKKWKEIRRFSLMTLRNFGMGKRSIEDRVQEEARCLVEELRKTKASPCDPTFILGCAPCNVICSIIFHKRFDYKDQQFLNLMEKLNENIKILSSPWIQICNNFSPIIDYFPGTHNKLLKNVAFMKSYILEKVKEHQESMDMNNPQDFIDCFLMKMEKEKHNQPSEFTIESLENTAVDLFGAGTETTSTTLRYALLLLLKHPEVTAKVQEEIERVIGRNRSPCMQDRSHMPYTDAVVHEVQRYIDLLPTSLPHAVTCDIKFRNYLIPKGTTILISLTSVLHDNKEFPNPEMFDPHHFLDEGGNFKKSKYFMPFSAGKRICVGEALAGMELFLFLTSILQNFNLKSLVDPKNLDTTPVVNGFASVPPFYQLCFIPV

HCT-116 [25] = experiment: Induction of apoptosis in human HCT-116 cells assessed as downregulation of […] mRNA expression at 25 to 400 nM incubated for 48 hrs by qRT-PCR analysis; format: functional, cell-based; conditions: dose 25-400 nM
[26] = MRT (0 to infinity) in Sprague-Dawley rat at 10 mg/kg,po administration measured for 0.25 to 24 hrs by LC-MS/MS analysis; format: ADME, organism-based; conditions: in vivo, time 0.25-24 hrs
CYP2C19 = CYP2C19 (Homo sapiens, UniProt P33261); experiment: Inhibition of CYP2C19 in human liver microsomes using benzylnirvanol as […] at 10 uM preincubated for 10 mins followed by NADPH addition measured after 15 mins by LC-MS/MS analysis relative to control; format: ADME, Microsome; conditions: probe benzylnirvanol, time 25 min
Chain of CYP2C19 (P33261 whole entry): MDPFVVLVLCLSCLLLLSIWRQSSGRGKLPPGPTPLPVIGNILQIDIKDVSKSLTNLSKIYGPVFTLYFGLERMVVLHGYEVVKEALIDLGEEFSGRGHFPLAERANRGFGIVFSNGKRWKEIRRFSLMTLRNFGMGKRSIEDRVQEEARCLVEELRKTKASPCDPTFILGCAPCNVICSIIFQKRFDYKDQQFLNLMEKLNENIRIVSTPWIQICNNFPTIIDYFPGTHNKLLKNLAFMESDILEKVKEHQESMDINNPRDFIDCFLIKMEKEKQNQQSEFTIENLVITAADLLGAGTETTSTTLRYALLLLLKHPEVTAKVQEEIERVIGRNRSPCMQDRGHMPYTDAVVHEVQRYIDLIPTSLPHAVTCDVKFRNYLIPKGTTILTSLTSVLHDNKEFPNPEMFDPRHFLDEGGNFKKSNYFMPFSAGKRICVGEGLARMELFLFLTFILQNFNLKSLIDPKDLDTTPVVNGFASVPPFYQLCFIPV

[27] = Apparent volume of distribution in Sprague-Dawley rat at 2 mg/kg,iv administration measured for 0.25 to 24 hrs by LC-MS/MS analysis; format: ADME, organism-based; conditions: in vivo, time 0.25-24 hrs, read-out: Vz
[28] = molecular target: Homeodomain-interacting protein kinase 1 (Homo sapiens) (UniProt Q86Z02); experiment: Inhibition of human HIPK1 at 100 nM by kinase profiling assay relative to control
[29] = Intrinsic microsomal clearance in human liver microsomes at 100 uM measured upto 60 mins in presence of NADPH by LC-MS/MS analysis; format: ADME, Microsome; conditions: read-out: CLH
HCT-116 [30] = experiment: Antitumor activity against human HCT-116 cells xenografted in BALB/c mouse assessed as downregulation of RNA polymerase II phosphorylation at 50 mg/kg,po administrated once daily for 3 weeks by Western blotting analysis; format: functional, organism-based
[31] = molecular target: Interleukin-1 receptor-associated kinase 1 (Homo sapiens) (UniProt P51617); experiment: Inhibition of human IRAK1 at 100 nM by kinase profiling assay relative to control
Chain of Interleukin-1 receptor-associated kinase 1 (Homo sapiens) (P51617 whole entry, looked up): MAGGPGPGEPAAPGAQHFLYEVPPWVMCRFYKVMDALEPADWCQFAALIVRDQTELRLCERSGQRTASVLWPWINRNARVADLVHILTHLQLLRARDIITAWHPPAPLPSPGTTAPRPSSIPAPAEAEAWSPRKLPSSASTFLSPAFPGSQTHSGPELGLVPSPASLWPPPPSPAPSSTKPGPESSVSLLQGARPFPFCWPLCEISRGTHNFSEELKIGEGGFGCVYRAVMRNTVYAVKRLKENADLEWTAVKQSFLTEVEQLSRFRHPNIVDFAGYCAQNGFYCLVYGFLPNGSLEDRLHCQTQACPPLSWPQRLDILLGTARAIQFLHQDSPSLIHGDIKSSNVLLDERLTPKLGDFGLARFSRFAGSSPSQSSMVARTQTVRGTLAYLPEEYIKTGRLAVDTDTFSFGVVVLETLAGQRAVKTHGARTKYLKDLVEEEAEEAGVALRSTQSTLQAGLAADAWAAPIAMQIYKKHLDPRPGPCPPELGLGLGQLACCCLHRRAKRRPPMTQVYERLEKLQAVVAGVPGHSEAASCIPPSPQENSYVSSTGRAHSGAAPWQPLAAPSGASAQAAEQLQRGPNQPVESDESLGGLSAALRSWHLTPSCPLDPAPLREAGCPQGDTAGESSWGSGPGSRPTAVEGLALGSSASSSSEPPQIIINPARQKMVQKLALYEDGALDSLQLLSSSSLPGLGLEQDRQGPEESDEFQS

[32] = AUC (0 to infinity) in Sprague-Dawley rat at 10 mg/kg,po administration measured for 0.25 to 24 hrs by LC-MS/MS analysis; format: ADME, organism-based; conditions: in vivo, time 0.25-24 hrs
[33] = MRT (0 to t) in Sprague-Dawley rat at 10 mg/kg,po administration measured for 0.25 to 24 hrs by LC-MS/MS analysis; format: ADME, organism-based; conditions: in vivo, time 0.25-24 hrs

- inhibition at 0.25 h, 10 µM (CYP3A4): 0%
- half-life [1]: > 4.82 h
- MRT last [4]: 1.48 h
- inhibition [6]: < 50%
- inhibition [7]: < 50%
- IC50 [8]: > 500 nM
- inhibition [13]: < 50%
- CLH [16]: 49.6 µL/min/mg
- GI50 (HCT-116 [17]): 50 nM
- IC50 [18]: > 500 nM
- remaining at 1 h, 100 µM [20]: 19.6%
- Tmax [23]: 0.5 h
- inhibition [24]: < 50%
- inhibition at 0.25 h, 10 µM (CYP2C9): 27.9%
- MRT inf [26]: 7.02 h
- inhibition at 0.25 h, 10 µM (CYP2C19): 24.5%
- Vd [27]: 13.4 L/kg
- inhibition [28]: < 50%
- microsomal CLint at 100 µM [29]: 55.1 µL/min/mg
- inhibition [31]: < 50%
- AUC(0-inf) [32]: 199 ng·h/mL
- MRT last [33]: 4.62 h
Compound: CC(C)n1nnc2ccc(-c3ccnc(Nc4cc(C(=O)N5CCCN(C)CC5)ccn4)c3)cc21
- inhibition (HCT-116 [2]): Dose-Dependent Effect
- Activity [3]: Non-Toxic
- Activity (HCT-116 [5]): Active
- Activity [9]: Non-Toxic
- Activity (HCT-116 [10]): Active
- Activity (HCT-116 [11]): Active
- Activity (HCT-116 [12]): Dose-Dependent Effect
- Activity [14]: Non-Toxic
- Activity (HCT-116 [15]): Dose-Dependent Effect
- RatioGI50 [19]: 173.46
- Activity [21]: Non-Toxic
- GI50 at 48 h [22]: 9510 nM
- Activity (HCT-116 [25]): Active
- Activity (HCT-116 [30]): Active
